Measured values from EP0931077B1, “SUBSTITUTED BENZOCYCLOHEPTAPYRIDINE USEFUL AS INHIBITORS OF FARNESYL-PROTEIN TRANSFERASE” (SCHERING CORPORATION, priority 1996, dated 1998).

Target: farnesyl-protein transferase (Homo sapiens, UniProt P49354+P49356)
Test: FPT inhibition (in vitro farnesyl protein transferase inhibition)
Format: biochemical

| SMILES | IC50 [nM] | further results |
| --- | --- | --- |
| O=C(NCc1cccnc1)C1CCCN1C1c2ncc(Br)cc2CCc2cc(Cl)cc(Br)c21 (single isomer, unassigned) [Example 2 Isomer B, 1-(3,10-dibromo-8-chloro-6,11-dihydro-5H-benzo[5,6]cyclohepta[1,2-b]pyridine-11-yl)-N-(3-pyridinylmethyl)-2-pyrrolidine carboxamide] | 5.2 |  |
| O=C(NCc1cccnc1)[C@@H]1CCCN1C1c2ccc(Cl)cc2CCc2cc(Br)cnc21 (single isomer, unassigned) [Example 1 Isomer B, 1-(3-Brorno-8-chloro-6,11-dihydro-5H-benzo[5,6]cyclohepta[1,2-b]pyridine-11-yl)-N-(3-pyridinylmethyl)2-pyrrolidine carboxamide] | 140 |  |
| O=C(NCc1cccnc1)C1CCCN1C1c2ncc(Br)cc2CCc2cc(Cl)cc(Br)c21 (single isomer, unassigned) [Example 2 Isomer A, 1-(3,10-dibromo-8-chloro-6,11-dihydro-5H-benzo[5,6]cyclohepta[1,2-b]pyridine-11-yl)-N-(3-pyridinylmethyl)-2-pyrrolidine carboxamide] |  | inhibition at 0.3 µM (@ 0.3 µM): 15% |
| O=C(NCc1cccnc1)C1CCN1C1c2ccc(Cl)cc2CCc2cc(Br)cnc21 (single isomer, unassigned) [Example 3 Isomer A, 1-(3-bromo-8-chloro-6,11-dihydro-5H-benzo[5,6]cyclohepta[1,2-b]pyridine-11-yl)-N-(3-pyridinylmethyl)2-azetidine carboxamide] | 1050 |  |
| O=C(NCc1cccnc1)C1CCN1C1c2ccc(Cl)cc2CCc2cc(Br)cnc21 (single isomer, unassigned) [Example 3 Isomer B, 1-(3-bromo-8-chloro-6,11-dihydro-5H-benzo[5,6]cyclohepta[1,2-b]pyridine-11-yl)-N-(3-pyridinylmethyl)2-azetidine carboxamide] |  | inhibition at 0.1 µM (@0.1 µM): 17% |
| O=C(NCc1cccnc1)[C@@H]1CCCN1C1c2ccc(Cl)cc2CCc2cc(Br)cnc21 (single isomer, unassigned) [Example 1 Isomer A, 1-(3-Brorno-8-chloro-6,11-dihydro-5H-benzo[5,6]cyclohepta[1,2-b]pyridine-11-yl)-N-(3-pyridinylmethyl)2-pyrrolidine carboxamide] | 59 |  |
